Assay results as given in patent publication US10351519B2, “Sulfamate derivative compounds, processes for preparing them and their uses” (BIO-PHARM SOLUTIONS CO., LTD., priority 2016, dated 2019).

Tests used:
Assay type in all cases: in vivo
[1] = system: ICR mice; assay: Anti-epilepsy activity, scPTZ test, mouse
Excerpt: In this experiment, each test compound sample was formulated as described in Biological Experimental Example I, and administered intraperitoneally to the test animals (mice; ICR or Rat; SD); Experimental animals, male ICR mice and male SD rats, were purchased from OrientBio or Nara biotech, Korea, and housed 4-5 mice per a cage for 4-5 days. The range of mice body weight was used between 19 and 26 grams and range of rats body weight was used between 100 and 130 grams. After Peak time (0.5, 1, 2 and 4 hr) from the administration, PTZ (Pentylenetetrazol) was administered subcutaneously in the concentration capable of inducing 97% intermittent convulsions (mice: 76-110 mg/kg·bw, 10 μl/g, or rats: 79-110 mg/kg·bw, 2 μl/g). If clonic seizure was not observed for at least 30 minutes in the PTZ administered animal, it can be considered that the test compound has anti-epilepsy activity. The median effective dose (ED50) is determined using 6 animals per a concentration (total three different concen-trations), and calculated by Litchfield and Wicoxon log-probit method which is a dose-response relationship.

[2] = system: SD rats; assay: Anti-epilepsy activity, MES test, rat; conditions: for ED50: Rattus norvegicus, po
Description: (§1) In the MES test (Ref., G. Villetti et al. Neuropharmacology 40 (2001) 866-878), an electrical stimulus (mice: 50 mA, 60 Hz, 0.2 sec, and rats: 150 mA, 60 Hz, 0.2 sec in the test animal) supplied by an 11A Shocker (IITC Life Science Company) was delivered through corneal electrodes. All mice or rats assigned to any electroshock at peak time were treated with each test compound sample which was dissolved in 30% PEG 400 or 20% tween 80 prepared by saline solvent applied orally before the test. […] Three doses of the test sample were administered orally to 9-18 animals (3-6 mice per dose) for evaluating the respective doses at which 50% of the animals were protected from seizure (ED50). The ED50 value (median effective dose) was calculated by Litchfield and Wicoxon log-probit method which is a dose-response relationship. Experimental animals, male ICR mice and male SD rats, were purchased from OrientBio, Samtako, or Nara Biotech, Korea, and housed in cages (4-5 mice or 3 rats per cage) for 4-5 days. The range of mice body weight was between 19 and 25 grams and range of rats body weight was between 100 and 130 grams.

[3] = system: ICR mice; assay: Anti-epilepsy activity, MES test, mouse
Description: as §1

[4] = system: Sprague-Dawley rats; assay: Antiallodynic activity on Chung model (SNL, spinal nerve ligation); conditions: orally; for SNL efficacy %: 30 mg/kg; for ED50: Rattus norvegicus, po, at peak time
Excerpt: Male Sprague-Dawley rats (100-130 g, Orient Bio, Korea) were habituated for 1 week before the experiment and allowed free access to food and water throughout the experimentation. Room temperature and humidity were maintained at 24±2 and 50±10%, respectively. The neuropathic surgery (SNL, Spinal nerve ligation) model was done as described in Kim and Chung (1992). Briefly, an animal was put under gaseous anesthesia with isoflurane. The left lumber spinal nerve L5 and L6 were isolated and tightly ligated with 6-0 silk thread. The wound muscle was closed with Catgut® chrom 3/0 thread and skin was closed with Dafilon 3/0 tread. Sham controls were prepared in the same manner with the spinal nerves exposed, but with no ligated L5 and L6 nerves. Preparation of the vehicle controls were identical to the group treated with compound, except for administration of vehicles without compound in the vehicle control group.
Tactile sensitivity (Mechanical allodynia) was evaluated using von Frey monofilaments before and after treatment, and animals were included in the study only if the withdrawal threshold value was less than 4 g. One week after surgery, SNL-operated animals, sham-operated animals and vehicle control animals were tested for tactile sensitivity with von Frey monofilaments 3 trials in each animal. All Animals were placed in a stainless steel mash chamber and habituated for 30 min in the test cage. The tactile sensitivity for the ipsilateral hind paw was measured using the up-and-down method (Dixon, 1980) with seven von Frey monofilaments (0.4, 1, 2, 4, 6, 8, and 15 g) in 3 trials. The tactile sensitivity test was followed by Dixon's method (Dixon, 1980). The 50% paw withdrawal threshold for each paw was calculated using the following formula: [Xth] log=[vFr] log+ky where [vFr] is the force of the last von Frey used, k=0.2249 which is the average interval (in log units) between the von Frey monofilaments, and y is a value that depends upon the pattern of withdrawal responses (Dixon, 1980).
All animals were fasted 18 h before the administration of the compounds. Antiallodynic effect of compounds were evaluated at the three dose, orally administrated in a volume of 5 ul/g, bw in a vehicle of 30% (v/v) PEG 400 or 20% (v/v) Tween 80. The test was performed at the peak time of efficacy after compound administration.
The relative values compared to the sham group (% control) were calculated and shown in Table 3, which show an antiallodynic effect of the test compounds on SNL model in rats.

[5] = system: Sprague-Dawley rats; assay: Antiallodynic activity on Complete Freund's Adjuvant (CFA)-induced inflammatory pain model; conditions: intraperitoneally
Description: Male, Sprague-Dawley rats (210-250 g, Nara Bio, Korea) were habituated for 1 week before CFA injection and allowed free access to food and water throughout the experimentation. Room temperature and humidity were maintained at 24±2 and 50±10%, respectively.
CFA-induced inflammatory pain was induced by the procedure of Nagakura et al. (2003) and Gregory P. et al. (2010) with minor modifications. CFA (sigma, USA) was injected in the right plantar with a 100 ul volume under gaseous anesthesia with isoflurane. Sham controls were injected with 100 ul of saline and preparation of the vehicles without compound in the vehicle control group. Tactile sensitivity (Mechanical allodynia) was evaluated using von Frey monofilaments before and after treatment, and the animals were included in the study only if the withdrawal threshold value was less than 4 g. One week after surgery, CFA-infused treatment animals (n=4-6), sham-operated animals (n=12), and vehicle control animals (n=17) were tested for tactile sensitivity with von Frey monofilaments 3 trials for each animal. All Animals were placed in a stainless steel mesh chamber and habituated for 30 min in the test box. The tactile sensitivity for ipsilateral hind paw was measured using the up-and-down method (Dixon, 1980) with seven von Frey monofilaments (0.4, 1, 2, 4, 6, 8, and 15 g) to 3 trials. Tactile sensitivity test was followed by Dixon's method (Dixon, 1980). The 50% paw withdrawal threshold for each paw was calculated using the following formula: [Xth] log=[vFr] log+ky where [vFr] is the force of the last von Frey used, k=0.2249 which is the average interval (in log units) between the von Frey monofilaments, and y is a value that depends upon the pattern of withdrawal responses (Dixon, 1980).
Antiallodynic effect of compound was evaluated at the dose of 10-60 mg/kg (n=4-6), intraperitoneally administrated in a volume of 5 ul/g bw in a vehicle of 30% (v/v) PEG or 20% (v/v) Tween 80. The test was performed peak time of efficacy (0.5 or 1 hr) after compound administration.
The relative values compared to the sham (% control) were calculated and shown in Table 4, which show an antiallodynic effect of Compound 1 on CFA-induced pain model in rats.

[6] = system: Sprague-Dawley rats; assay: Lithium-pilocarpine induced epilepsy test, prevention; conditions: i.p.
Description: Male Sprague-Dawley rats (purchased from Orient Bio Inc. Korea) of body weight 175-200 grams were used for these studies and 3 rats per cage were housed for 4-5 days. On the day prior to SE, rats received 127 mg/kg lithium chloride (Sigma, St. Louis, Mo., U.S.A.) intraperitoneally (i.p.). Approximately 18-20 h following this treatment, rats were given an i.p. injection of CD97 dose (30-43 mg/kg) pilocarpine (Sigma). An i.p. injection of 2 mg/kg methyl-scopolamine (Sigma) was administered 30 min prior to pilocarpine to block the effects of the muscarinic agonist on peripheral cholinergic receptors. Test drugs were dissolved in 30% PEG 400 or 20% tween80 (Sigma).
The drugs were administered intraperitoneally (i.p.) in a volume of 2 ul/g body weight. Pharmacological effects of all of the test materials were evaluated to compare test groups (n=6) with a control group (n=6). Control group was administered vehicle only. The efficacy was measured 0.5, 1, 2, or 4 hours after the administration of the test material. The time point that the most animals were protected was defined as peak time and the ED50 was determined at peak time. The animals were then transferred to observation cages and observed continuously for 90 min. Seizure was elicited in approximately 95% of the control group. Protection was defined as complete absence of seizure grade 3-5 (Racine scale; Racine, 1972) over the 90-min observation period. The effective dose of the compound necessary to protect 50% of the animals against seizures compared to controls (i.e. ED50) was determined by a curve fitting program (Excel 2007, Microsoft).

[7] = Rattus norvegicus, ip, read-out: CFA-induced pain model efficacy %
[8] = po, read-out: MES test (po) efficacy %

Structure (SMILES)	MES test (po) Peak time [2]	MES test (po) Peak time [3] [h]	ED50 [2] [mg/kg]	SNL Peak Time [4] [h]	SNL efficacy % [4]	response vs control in vivo at 50 mg/kg [5, 7] [%]	CFA-induced pain model Peak Time [5] [h]	responders at 60 mg/kg [3, 8] [%]	further results
C[C@@H](OS(N)(=O)=O)[C@H](O)c1ccc(Cl)cc1Cl [Example 4, (1R, 2R)-1-(2,4-dichlorophenyl)-1-hydroxypropan-2-yl sulfamate]	4 h	–	–	–	–	–	–	–	scPTZ test (ip) Peak time [1]: 2 h; scPTZ test (ip) efficacy % ([1]; 100 mg/kg): 100(100%); MES test (po) efficacy % ([2]; 10 mg/kg): 33%
C[C@@H](OS(N)(=O)=O)[C@H](O)c1ccccc1F [Example 18, (1R, 2R)-1-(2-fluorophenyl)-1-hydroxypropan-2-yl sulfamate]	(2 h)	1	14.2	0.5	30(48.2%)	46.6	0.5	–	ED50 ([3]; po): 62 mg/kg
C[C@@H](OS(N)(=O)=O)[C@H](O)c1cccc(Cl)c1Cl [Example 10, (1R, 2R)-1-(2,3-dichlorophenyl)-1-hydroxypropan-2-yl sulfamate]	–	1	–	–	–	–	–	–	responders at 100 mg/kg ([3]; po, 100 mg/kg, read-out: MES test (po) efficacy %): 83.3%; Lithium pilocarpine model (pre) peak time [6]: 1 h; Lithium pilocarpine model (pre) efficacy % ([6]; 100 mg/kg): 66.6%
C[C@H](OS(N)(=O)=O)[C@@H](O)c1ccccc1F [Example 17, (1S, 2S)-1-(2-fluorophenyl)-1-hydroxypropan-2-yl sulfamate]	–	–	–	1	–	–	0.5	–	ED50 [4]: 46.9 mg/kg; ED50 ([5]; Rattus norvegicus, ip, at peak time): 48.7 mg/kg
C[C@H](OS(N)(=O)=O)[C@@H](O)c1ccccc1I [Example 19, (1S, 2S)-1-(2-iodophenyl)-1-hydroxypropan-2-yl sulfamate]	–	1	–	1	–	–	1	–	responders at 30 mg/kg ([3]; po, 30 mg/kg, read-out: MES test (po) efficacy %): 66.6%; ED50 [4]: 44.6 mg/kg; response vs control in vivo at 30 mg/kg ([5]; Rattus norvegicus, ip, 30 mg/kg, read-out: CFA-induced pain model efficacy %): 24.3%
C[C@@H](OS(N)(=O)=O)[C@H](O)c1ccccc1I [Example 20, (1R, 2R)-1-(2-iodophenyl)-1-hydroxypropan-2-yl sulfamate]	(2 h)	1	20.1	1	30(58.7%)	28.7	0.5	16.6	–
COCO[C@H](c1ccccc1I)[C@@H](C)OS(N)(=O)=O [Example 75, (1R, 2R) 1-(2-iodophenyl)-1-(methoxymethoxy)propan-2-yl sulfamate]	(2 h)	1	4.2	1	30(64.9%)	28.1	0.5	33.3	–
C[C@H](OS(N)(=O)=O)[C@@H](O)c1ccccc1Cl [Example 1, (1S, 2S)-1-(2-chlorophenyl)-1-hydroxypropan-2-yl sulfamate]	–	2	–	–	–	–	–	–	ED50 ([3]; po): 46.9 mg/kg; scPTZ test (ip) Peak time [1]: 0.5 h; ED50 ([1]; ip): 76.6 mg/kg
COCO[C@H](c1ccccc1F)[C@@H](C)OS(N)(=O)=O [Example 73, (1R, 2R)-1-(2-fluorophenyl)-1-(methoxymethoxy)propan-2-yl sulfamate]	(4 h)	1	34.8	1	30(31.3%)	38.5	0.5	33.3	–
